The numbers were not newly measured in patent US6506055B1, “Method of reducing dentin sensitivity and compositions therefor” (MCG Research Institute, priority 1999, dated 2003), which cites them from elsewhere.

For this data set the following is noted: 3% w/v applied to dentin; both in vitro and in vivo.

On to `O=C([O-])C(=O)O.[K+]` [monopotassium-monohydrogen oxalate], for which the “Hydraulic conductance of dentin” value is “reduced”.
